Source: patent US20260365646A1, “AKT1 MODULATORS” (Alterome Therapeutics, Inc., priority 2022, published 2026)

Biological target: T1, full length AKT E17K (Homo sapiens, UniProt P31749, E17K)
T1 construct: host or cells: HEK-293 (ATCC CRL-1573)
Experiment: NanoBRET Target Engagement (TE) Intracellular Kinase Assay
Type: cell-based
Settings: not given
How it was run: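 Live-cell BRET assay: cells expressing NanoLuc-fused full-length AKT E17K incubated 2 h with tracer at target-optimized concentration plus compound. BRET read at 450 nm donor/600 nm acceptor with extracellular NanoLuc inhibitor. EC50 from sigmoidal variable-slope fit of tracer displacement.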

T1 sequence (P31749 whole entry E17K): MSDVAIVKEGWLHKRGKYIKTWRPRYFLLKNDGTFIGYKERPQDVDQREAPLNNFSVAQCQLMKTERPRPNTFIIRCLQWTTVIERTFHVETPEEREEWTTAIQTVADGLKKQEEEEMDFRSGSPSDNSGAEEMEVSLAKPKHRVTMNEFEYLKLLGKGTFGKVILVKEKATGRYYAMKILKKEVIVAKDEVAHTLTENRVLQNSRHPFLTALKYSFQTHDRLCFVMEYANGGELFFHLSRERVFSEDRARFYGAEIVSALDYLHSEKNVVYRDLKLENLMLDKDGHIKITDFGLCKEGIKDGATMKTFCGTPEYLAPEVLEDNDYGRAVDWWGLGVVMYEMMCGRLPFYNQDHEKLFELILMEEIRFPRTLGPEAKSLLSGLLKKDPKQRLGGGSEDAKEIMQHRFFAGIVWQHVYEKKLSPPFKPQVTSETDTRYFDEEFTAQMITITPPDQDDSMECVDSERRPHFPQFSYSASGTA

EC50 [nM]	SMILES
15 to 60	CCSc1c(N(CC)C2CCN(Cc3ccc(-n4c(-c5cccnc5N)nc5ccc(-c6ccccc6)nc54)cc3)CC2)c(=O)c1=O [Example 93, 3-((1-(4-(2-(2-aminopyridin-3-yl)-5-phenyl-3H-imidazo[4,5-b]pyridin-3-yl)benzyl)piperidin-4-yl)(ethyl)amino)-4-(ethylthio)cyclobut-3-ene-1,2-dione]
15 to 60	CSc1c(N(C2CC2)C2CCN(Cc3ccc(-n4c(-c5cccnc5N)nc5ccc(-c6ccccc6)nc54)cc3)CC2)c(=O)c1=O [Example 95, 3-((1-(4-(2-(2-aminopyridin-3-yl)-5-phenyl-3H-imidazo[4,5-b]pyridin-3-yl)benzy1)piperidin-4-yl)(cyclopropyl)amino)-4-(methylthio)cyclobut-3-ene-1,2-dione]
15 to 60	CCSc1c(N(C2CC2)C2CCN(Cc3ccc(-n4c(-c5cccnc5N)nc5ccc(-c6ccccc6)nc54)cc3)CC2)c(=O)c1=O [Example 96, 3-((1-(4-(2-(2-aminopyridin-3-yl)-5-phenyl-3H-imidazo[4,5-b]pyridin-3-yl)benzyl)piperidin-4-yl)(cyclopropyl)amino)-4-(ethylthio)cyclobut-3-ene-1,2-dione]
15 to 60	COc1c(N2CCC3(CCN(Cc4ccc(-n5c(-c6cccnc6N)nc6ccc(-c7ccccc7)nc65)cc4)CC3)CC2)c(=O)c1=O [Example 99, 3-(9-(4-(2-(2-aminopyridin-3-yl)-5-phenyl-3H-imidazo[4,5-b]pyridin-3-yl)benzyl)-3,9-diazaspiro[5.5]undecan-3-yl)-4-methoxycyclobut-3-ene-1,2-dione]

Same assay, conditions: read-out: NanoBRET AKT1E17K EC50; HEK-293 cells transfected with NanoLuc-AKT E17K; competitive displacement of NanoBRET tracer; 2 hr equilibration; 10-point 3-fold dilution

SMILES	EC50 [nM]
CCN(c1c(SC)c(=O)c1=O)C1CCN(Cc2ccc(-n3c(-c4cccnc4N)nc4ccc(-c5ccccc5)nc43)cc2)CC1 [Example 92, 3-((1-(4-(2-(2-aminopyridin-3-yl)-5-phenyl-3H-imidazo[4,5-b]pyridin-3-yl)benzyl)piperidin-4-yl)(ethyl)amino)-4-(methylthio)cyclobut-3-ene-1,2-dione]	< 15
COc1c(N(C2CC2)C2CCN(Cc3ccc(-n4c(-c5cccnc5N)nc5ccc(-c6ccccc6)nc54)cc3)CC2)c(=O)c1=O [Example 94, 3-((1-(4-(2-(2-aminopyridin-3-yl)-5-phenyl-3H-imidazo[4,5-b]pyridin-3-yl)benzyl)piperidin-4-yl)(cyclopropyl)amino)-4-methoxycyclobut-3-ene-1,2-dione]	< 15
CCSc1c(N(C)N2CCN(Cc3ccc(-n4c(-c5cccnc5N)nc5ccc(-c6ccccc6)nc54)cc3)CC2)c(=O)c1=O [Example 97, 3-((4-(4-(2-(2-aminopyridin-3-yl)-5-phenyl-3H-imidazo[4,5-b]pyridin-3-yl)benzyl)piperazin-1-yl)(methyl)amino)-4-(ethylthio)cyclobut-3-ene-1,2-dione]	< 15
COc1c(NC2CCC3(CC2)CN(Cc2ccc(-n4c(-c5cccnc5N)nc5ccc(-c6ccccc6)nc54)cc2)C3)c(=O)c1=O [Example 98, 3-((2-(4-(2-(2-aminopyridin-3-yl)-5-phenyl-3H-imidazo[4,5-b]pyridin-3-yl)benzyl)-2-azaspiro[3.5]nonan-7-yl)amino)-4-methoxycyclobut-3-ene-1,2-dione]	< 15

Other lines, results leading:

EC50 [nM]	SMILES
< 15	COc1c(N(C)C2CCN(C(C)c3ccc(-n4c(-c5cccnc5N)nc5ccc(-c6ccccc6)nc54)cc3)CC2)c(=O)c1=O (centres unmarked) [Example 90, 3-((1-(1-(4-(2-(2-aminopyridin-3-yl)-5-phenyl-3H-imidazo[4,5-b]pyridin-3-yl)phenyl)ethyl)piperidin-4-yl)(methyl)amino)-4-methoxycyclobut-3-ene-1,2-dione]
< 15	CCN(c1c(OC)c(=O)c1=O)C1CCN(Cc2ccc(-n3c(-c4cccnc4N)nc4ccc(-c5ccccc5)nc43)cc2)CC1 [Example 91, 3-((1-(4-(2-(2-aminopyridin-3-yl)-5-phenyl-3H-imidazo[4,5-b]pyridin-3-yl)benzyl)piperidin-4-yl)(ethyl)amino)-4-methoxycyclobut-3-ene-1,2-dione]
< 15	[2H]C([2H])([2H])N(c1c(OC)c(=O)c1=O)C1CCN(Cc2ccc(-n3c(-c4cccnc4N)nc4ccc(-c5ccccc5)nc43)cc2)CC1 [Example 100, 3-((1-(4-(2-(2-aminopyridin-3-yl)-5-phenyl-3H-imidazo[4,5-b]pyridin-3-yl)benzyl)piperidin-4-yl)(methyl-d3)amino)-4-methoxycyclobut-3-ene-1,2-dione]
